From ChEMBL document CHEMBL1201862, “PubChem BioAssay data set” (2004) come the findings set out here.

Test [1] concerns the target T1, Corticotropin-releasing factor receptor 2/Corticotropin-releasing factor-binding protein (Homo sapiens, UniProt P24387+Q13324).
T1 sequence (Q13324 whole entry): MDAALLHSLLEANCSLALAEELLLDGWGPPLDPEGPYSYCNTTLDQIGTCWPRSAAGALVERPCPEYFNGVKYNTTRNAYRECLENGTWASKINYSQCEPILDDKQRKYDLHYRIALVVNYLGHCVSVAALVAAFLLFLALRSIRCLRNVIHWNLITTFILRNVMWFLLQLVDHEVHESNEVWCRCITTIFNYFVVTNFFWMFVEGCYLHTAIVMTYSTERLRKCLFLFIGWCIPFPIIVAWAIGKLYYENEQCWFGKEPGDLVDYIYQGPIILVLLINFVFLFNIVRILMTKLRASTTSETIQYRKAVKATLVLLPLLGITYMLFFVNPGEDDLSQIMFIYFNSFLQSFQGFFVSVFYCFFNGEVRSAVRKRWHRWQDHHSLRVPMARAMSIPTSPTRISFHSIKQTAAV
T1 sequence (P24387 whole entry): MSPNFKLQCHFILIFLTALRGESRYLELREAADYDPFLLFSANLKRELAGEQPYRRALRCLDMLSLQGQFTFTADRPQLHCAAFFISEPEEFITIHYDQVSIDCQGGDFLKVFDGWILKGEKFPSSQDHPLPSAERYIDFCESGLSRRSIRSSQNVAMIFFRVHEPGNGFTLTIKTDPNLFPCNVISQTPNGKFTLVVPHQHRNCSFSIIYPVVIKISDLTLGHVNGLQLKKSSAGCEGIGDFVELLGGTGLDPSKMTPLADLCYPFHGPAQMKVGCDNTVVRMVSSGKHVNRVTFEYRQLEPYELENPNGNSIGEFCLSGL
Put plainly: activators of CRF receptor 2 with binding protein – uHTS hits, confirmation (AID 602473). Type of test: functional. The note with it: read-out: EC50_Mean.

In test [2] the target is T2, Short transient receptor potential channel 4 (Mus musculus, UniProt Q9QUQ5).
T2 sequence (Q9QUQ5 whole entry): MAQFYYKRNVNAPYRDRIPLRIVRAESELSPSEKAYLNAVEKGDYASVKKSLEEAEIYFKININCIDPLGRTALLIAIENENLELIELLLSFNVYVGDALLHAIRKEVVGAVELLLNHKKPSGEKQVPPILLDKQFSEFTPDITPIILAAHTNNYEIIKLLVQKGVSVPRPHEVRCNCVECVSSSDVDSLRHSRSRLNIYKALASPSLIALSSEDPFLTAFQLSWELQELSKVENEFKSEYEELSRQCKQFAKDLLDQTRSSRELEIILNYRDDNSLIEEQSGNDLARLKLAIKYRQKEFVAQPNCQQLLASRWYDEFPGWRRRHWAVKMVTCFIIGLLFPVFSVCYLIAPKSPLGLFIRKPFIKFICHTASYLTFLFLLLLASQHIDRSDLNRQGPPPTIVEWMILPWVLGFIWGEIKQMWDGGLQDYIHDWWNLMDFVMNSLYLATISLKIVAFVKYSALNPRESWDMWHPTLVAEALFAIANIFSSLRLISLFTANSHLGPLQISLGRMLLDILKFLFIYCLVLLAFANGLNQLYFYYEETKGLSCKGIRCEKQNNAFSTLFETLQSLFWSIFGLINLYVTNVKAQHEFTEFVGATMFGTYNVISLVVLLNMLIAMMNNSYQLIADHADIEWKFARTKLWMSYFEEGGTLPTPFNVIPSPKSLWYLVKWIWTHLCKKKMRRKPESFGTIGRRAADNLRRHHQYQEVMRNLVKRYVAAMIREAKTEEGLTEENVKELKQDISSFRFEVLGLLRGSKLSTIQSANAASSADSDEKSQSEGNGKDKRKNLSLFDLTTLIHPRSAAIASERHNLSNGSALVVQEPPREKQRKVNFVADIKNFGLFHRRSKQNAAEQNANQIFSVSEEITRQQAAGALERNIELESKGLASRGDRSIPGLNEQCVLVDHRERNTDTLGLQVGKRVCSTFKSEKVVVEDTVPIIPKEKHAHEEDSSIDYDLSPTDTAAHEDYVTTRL
Briefly: TRPC4 positive allosteric modulators, dose response, cell-based, HEK293 TRPC4/mu-opioid, Fluo-4 calcium, EC20 DAMGO (AID 434941).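 Further: HEK293 cells coexpressing TRPC4 and mu opioid receptor stimulated by EC20 DAMGO.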 Type of test: functional.

A further test addresses T3, Protein RecA (Mycobacterium tuberculosis, UniProt P9WHJ3).
T3 sequence (P9WHJ3 whole entry): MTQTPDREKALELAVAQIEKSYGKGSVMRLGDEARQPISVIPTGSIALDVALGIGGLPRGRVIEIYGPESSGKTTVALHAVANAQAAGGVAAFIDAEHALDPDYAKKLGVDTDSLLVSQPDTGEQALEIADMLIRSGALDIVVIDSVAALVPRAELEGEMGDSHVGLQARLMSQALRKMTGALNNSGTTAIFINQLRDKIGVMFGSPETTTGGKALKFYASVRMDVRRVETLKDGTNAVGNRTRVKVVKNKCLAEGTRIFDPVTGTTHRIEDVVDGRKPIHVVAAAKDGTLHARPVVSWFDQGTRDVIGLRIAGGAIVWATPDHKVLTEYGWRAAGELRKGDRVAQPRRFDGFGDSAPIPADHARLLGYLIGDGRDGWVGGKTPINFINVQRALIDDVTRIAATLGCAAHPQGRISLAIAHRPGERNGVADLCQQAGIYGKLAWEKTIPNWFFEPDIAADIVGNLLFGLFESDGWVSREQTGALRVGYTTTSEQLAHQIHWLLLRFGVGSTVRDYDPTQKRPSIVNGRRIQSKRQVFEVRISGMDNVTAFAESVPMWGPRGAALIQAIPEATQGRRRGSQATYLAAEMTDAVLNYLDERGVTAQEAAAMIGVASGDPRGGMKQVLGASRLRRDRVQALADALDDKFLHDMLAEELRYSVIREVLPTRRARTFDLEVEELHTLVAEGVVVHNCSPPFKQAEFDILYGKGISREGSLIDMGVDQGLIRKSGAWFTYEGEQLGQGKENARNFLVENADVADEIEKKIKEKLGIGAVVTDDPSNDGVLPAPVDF
Put plainly: Fluorescence Cell-Free Homogeneous Dose Retest to Identify Inhibitors of RecA-Intein Splicing Activity. [Related pubchem assays (depositor defined):AID2097, AID2223, AID489010, AID492950]. In kind it is functional.

Test [3] deals with G-protein coupled receptor 55 (Homo sapiens, UniProt Q9Y2T6). Briefly: GPR55 agonists via beta-arrestin recruitment, primary screen, imaging, U2OS cells, beta-arrestin-GFP redistribution (AID 1961). In kind it is functional.
Sequence of G-protein coupled receptor 55 (Q9Y2T6 whole entry): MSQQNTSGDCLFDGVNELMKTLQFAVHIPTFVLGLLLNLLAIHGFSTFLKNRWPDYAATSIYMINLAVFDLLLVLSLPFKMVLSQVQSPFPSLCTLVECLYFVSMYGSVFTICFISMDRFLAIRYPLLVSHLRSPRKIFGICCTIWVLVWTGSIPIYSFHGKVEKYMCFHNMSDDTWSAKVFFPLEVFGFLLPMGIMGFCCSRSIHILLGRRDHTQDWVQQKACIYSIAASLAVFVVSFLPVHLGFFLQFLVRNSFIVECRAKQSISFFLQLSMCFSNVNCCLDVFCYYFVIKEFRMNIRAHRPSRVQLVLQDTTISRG
The target in test [4] is T4, Replicative DNA helicase DnaB (Mycobacterium tuberculosis, UniProt P9WMR3).
T4 sequence (P9WMR3 whole entry): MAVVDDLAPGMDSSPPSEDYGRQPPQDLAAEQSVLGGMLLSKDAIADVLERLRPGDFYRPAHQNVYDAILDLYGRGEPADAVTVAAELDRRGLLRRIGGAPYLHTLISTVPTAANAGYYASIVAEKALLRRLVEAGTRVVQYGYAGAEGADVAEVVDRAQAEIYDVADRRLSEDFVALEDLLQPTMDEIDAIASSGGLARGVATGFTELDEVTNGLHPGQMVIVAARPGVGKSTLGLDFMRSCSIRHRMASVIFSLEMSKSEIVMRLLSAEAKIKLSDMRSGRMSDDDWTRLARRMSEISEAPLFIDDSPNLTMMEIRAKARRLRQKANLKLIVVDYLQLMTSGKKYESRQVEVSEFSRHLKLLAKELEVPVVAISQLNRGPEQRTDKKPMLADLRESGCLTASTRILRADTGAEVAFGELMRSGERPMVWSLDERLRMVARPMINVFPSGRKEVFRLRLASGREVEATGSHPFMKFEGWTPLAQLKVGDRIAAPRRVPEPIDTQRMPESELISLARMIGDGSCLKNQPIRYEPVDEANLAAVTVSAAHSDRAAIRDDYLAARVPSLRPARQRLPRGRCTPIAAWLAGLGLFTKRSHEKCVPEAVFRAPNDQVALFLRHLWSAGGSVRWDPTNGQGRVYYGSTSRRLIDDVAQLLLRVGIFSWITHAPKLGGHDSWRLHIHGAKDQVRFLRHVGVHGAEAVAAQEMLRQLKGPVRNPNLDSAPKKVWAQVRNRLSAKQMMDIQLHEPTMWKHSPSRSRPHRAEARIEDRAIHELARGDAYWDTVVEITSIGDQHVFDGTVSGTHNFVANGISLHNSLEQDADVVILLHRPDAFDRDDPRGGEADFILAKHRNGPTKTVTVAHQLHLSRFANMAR
Briefly: DnaB intein splicing inhibitors, dose response, biochemical, cell-free fluorescence (AID 449749). In kind it is functional.

The test system of the next test is H9c2. Briefly: cells. Type of test: functional, cell-based. The note with it: Rattus norvegicus, H9c2, Myocardium.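 Further: confirmatory concentration-response retest of ultra-high-throughput screening hits for modulation of myocardial damage; cell death induced by hydrogen peroxide oxidative stress; compound pretreatment for 60 min then peroxide exposure for 2 h; potency is for protecting the cells against peroxide damage rather than for killing them.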
The target of a further test is T5, X-box-binding protein 1 (Homo sapiens, UniProt P17861).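 Further: confirmatory dose-response counter-screen serving a CHOP assay.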
T5 sequence (P17861 whole entry): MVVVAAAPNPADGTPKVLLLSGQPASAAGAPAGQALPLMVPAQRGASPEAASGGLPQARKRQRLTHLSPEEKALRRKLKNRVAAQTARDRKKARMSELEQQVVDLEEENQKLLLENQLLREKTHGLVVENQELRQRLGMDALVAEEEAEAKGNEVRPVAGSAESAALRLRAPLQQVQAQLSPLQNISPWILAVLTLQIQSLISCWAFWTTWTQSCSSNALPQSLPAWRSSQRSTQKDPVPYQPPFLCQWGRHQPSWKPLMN
In kind it is functional, Cricetulus griseus.

Test [5] concerns the target DNA damage-inducible transcript 3 protein (Mus musculus, UniProt P35639). In kind it is functional, Cricetulus griseus.
The next test deals with T6, Hexokinase (Trypanosoma brucei, UniProt Q38C41).
T6 sequence (Q38C41 whole entry): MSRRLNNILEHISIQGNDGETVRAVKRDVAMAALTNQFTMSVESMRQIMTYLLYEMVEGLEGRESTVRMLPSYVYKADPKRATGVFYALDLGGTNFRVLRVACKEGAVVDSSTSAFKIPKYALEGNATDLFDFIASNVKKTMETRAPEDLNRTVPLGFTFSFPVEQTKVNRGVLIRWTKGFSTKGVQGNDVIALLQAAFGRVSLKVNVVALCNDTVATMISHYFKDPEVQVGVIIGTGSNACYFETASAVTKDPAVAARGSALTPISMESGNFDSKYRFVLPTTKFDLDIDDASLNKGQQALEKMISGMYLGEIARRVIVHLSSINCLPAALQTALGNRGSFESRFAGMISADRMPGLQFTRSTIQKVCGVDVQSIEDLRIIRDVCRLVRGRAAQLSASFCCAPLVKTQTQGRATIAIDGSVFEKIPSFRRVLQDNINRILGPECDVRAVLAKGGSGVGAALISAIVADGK
Put plainly: Confirmation assay for inhibitors of Trypanosoma brucei hexokinase 1-Analogue-first series. [Related pubchem assays (depositor defined):AID1430, AID1632, AID2516, AID2560, AID2579, AID2600, AID449725, AID492951]. In kind it is functional.

Test [6] deals with T2, Short transient receptor potential channel 4. Put plainly: mouse TRPC4 channel activators, dose response, cell-based, HEK293 TRPC4/mu-opioid, Fluo-4 calcium (AID 434937). Type of test: functional.

Active and inactive are the calls of the source.

Sequence of DNA damage-inducible transcript 3 protein (P35639 whole entry): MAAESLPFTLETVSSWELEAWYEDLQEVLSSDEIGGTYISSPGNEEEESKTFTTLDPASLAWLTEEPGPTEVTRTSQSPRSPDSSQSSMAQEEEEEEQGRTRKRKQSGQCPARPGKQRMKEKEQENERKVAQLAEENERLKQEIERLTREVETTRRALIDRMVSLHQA

Regarding `O=C(O)CCNc1nc(-c2ccccc2)c2cc(Br)ccc2n1`, the EC50 was 2.38 µM (active) in [1] and 0.13 µM (active) in test [2].

Regarding `COc1ccc(C=C(c2nc3ccccc3s2)c2nc3ccccc3s2)cc1O`, the results for the EC50 (on Protein RecA; in [3]) were 7.08 µM (active) and 3.05 µM (active), respectively. Also, the AC50 in [4] is > 380 µM (inactive).

As for `CCOC(=O)Cc1csc(NC(=O)NC2(C(F)(F)F)Oc3ccc(Cl)cc3O2)n1` (stereo not drawn), the IC50 in the test with H9c2 was > 79 µM (inactive). Besides, the “Absolute IC50 (XBP1)” value on X-box-binding protein 1 came to 10 µM. In test [5], the “Absolute IC50 (CHOP)” value is 10 µM.

As for `CC(C)c1c(O)nc(SCCN(C)C)nc1O`, the EC50 in test [2] was 0.75 µM (active).

On to `O=c1c2cc(Br)ccc2[s+]([O-])n1-c1ccccc1` (stereo not drawn), for which the IC50 on Hexokinase is > 25 µM (inactive).

Regarding `COc1ccc(/N=C(\C)C2=C(O)C(=O)N(CCO)C2c2ccc(Br)cc2)cc1` (stereo not drawn), the EC50 in test [6] was 5.96 µM (active); in test [2] it was 0.38 µM (active).

Regarding `O=C(Cn1sc2ccccc2c1=O)Nc1cccc(I)c1`, the IC50 on Hexokinase is > 25 µM (inactive).
